Measured values from the RepoRT retention time repository.

Assay: HILIC, Waters Atlantis Premier BEH Z-HILIC, 100 × 2.1 mm, 1.7 µm, 40 °C, 0.15 mL/min, estimated dead time 1.5 min; A: water + 20 mM ammonium carbonate + 5 µM medronic acid; B: 10% water + 90% acetonitrile + 2 mM ammonium carbonate + 0.5 µM medronic acid; gradient (min/%B) 0/90 18/55 18.1/20 21.5/20 22/90 23.5/90 25.5/90
Conditions: stereoisomer not certain

Row | LC retention time | Compound
1 | 8.68 min | O=C(O)CCC(=O)C(=O)O [2-Oxoglutaric acid]
2 | 9.22 min | O=C(O)CCC(O)C(=O)O (configuration not stated) [2-hydroxy glutaric acid]
3 | 18.4 min | NC(N)=NCCCC(N)C(=O)O (configuration not stated) [Arginine]
4 | 12.8 min | O=C(O)CC(O)(CC(=O)O)C(=O)O [Citric acid]
5 | 9.23 min | NC(CCC(=O)O)C(=O)O (configuration not stated) [Glutamic acid]
6 | 10.3 min | NC(=O)CCC(N)C(=O)O (configuration not stated) [Glutamine]
7 | 12.8 min | O=C(O)CC(C(=O)O)C(O)C(=O)O (configuration not stated) [Isocitric acid]
8 | 6.5 min | CCC(C)C(N)C(=O)O (configuration not stated) [Isoleucine]
9 | 3.15 min | CC(O)C(=O)O (configuration not stated) [Lactic Acid]
10 | 6.22 min | CC(C)CC(N)C(=O)O (configuration not stated) [Leucine]
11 | 18.6 min | NCCCCC(N)C(=O)O (configuration not stated) [Lysine]
12 | 9.23 min | O=C(O)CCC(=O)O [Succinic Acid]

The remaining lines, values behind:

Row | Compound | LC retention time
13 | Nc1ncnc2c1ncn2C1OC(COP(=O)(O)OP(=O)(O)O)C(O)C1O (configuration not stated) [ADP] | 11.1 min
14 | Nc1ncnc2c1ncn2C1OC(COP(=O)(O)O)C(O)C1O (configuration not stated) [AMP] | 9.07 min
15 | Nc1ncnc2c1ncn2C1OC(COP(=O)(O)OP(=O)(O)OP(=O)(O)O)C(O)C1O (configuration not stated) [ATP] | 12.9 min
16 | CC(=O)SCCNC(=O)CCNC(=O)C(O)C(C)(C)COP(=O)(O)OP(=O)(O)OCC1OC(n2cnc3c(N)ncnc32)C(O)C1OP(=O)(O)O (configuration not stated) [Acetyl-CoA] | 10.1 min
17 | Nc1ncnc2c1ncn2C1OC(CO)C(O)C1O (configuration not stated) [Adenosine] | 3.18 min
18 | O=C(O)CCCCC1SCC2NC(=O)NC21 (configuration not stated) [Biotin] | 4.58 min
19 | C[N+](C)(C)CC(O)CC(=O)[O-] (configuration not stated) [Carnitine] | 9.89 min
20 | CC(C)(COP(=O)(O)OP(=O)(O)OCC1OC(n2cnc3c(N)ncnc32)C(O)C1OP(=O)(O)O)C(O)C(=O)NCCC(=O)NCCS (configuration not stated) [CoenzymeA] | 11.8 min
21 | Cc1cc2nc3c(=O)[nH]c(=O)nc-3n(CC(O)C(O)C(O)COP(=O)(O)OP(=O)(O)OCC3OC(n4cnc5c(N)ncnc54)C(O)C3O)c2cc1C (configuration not stated) [FAD] | 7.03 min
22 | O=C(CO)C(O)C(O)C(O)COP(=O)(O)O (configuration not stated) [Fructose 6-phosphate] | 10.8 min
23 | O=P(O)(O)OCC1OC(O)(COP(=O)(O)O)C(O)C1O (configuration not stated) [Fructose-1,6-bisphosphate] | 14.8 min
24 | Nc1nc2c(ncn2C2OC(COP(=O)(O)OP(=O)(O)OP(=O)(O)O)C(O)C2O)c(=O)[nH]1 (configuration not stated) [GTP] | 15.3 min
25 | O=P(O)(O)OCC1OC(O)C(O)C(O)C1O (configuration not stated) [Glucose-6-phosphate] | 11.7 min
26 | O=P(O)(O)OCC(O)CO (configuration not stated) [Glycerol-3-phosphate] | 9.92 min
27 | OCC1OC(O)C(O)C(O)C1O (configuration not stated) [Hexose] | 7.41 min
28 | NC(=O)C1=CN(C2OC(COP(=O)(O)OP(=O)(O)OCC3OC(n4cnc5c(N)ncnc54)C(O)C3O)C(O)C2O)C=CC1 (configuration not stated) [NADH] | 8.31 min
29 | NC(=O)C1=CN(C2OC(COP(=O)(O)OP(=O)(O)OCC3OC(n4cnc5c(N)ncnc54)C(OP(=O)(O)O)C3O)C(O)C2O)C=CC1 (configuration not stated) [NADPH] | 13.3 min
30 | NC(=O)c1ccc[n+](C2OC(COP(=O)(O)OP(=O)(O)OCC3OC(n4cnc5c(N)ncnc54)C(OP(=O)(O)O)C3O)C(O)C2O)c1 (configuration not stated) [NADP] | 13.1 min
31 | NC(=O)c1ccc[n+](C2OC(COP(=O)(O)OP(=O)(O)OCC3OC(n4cnc5c(N)ncnc54)C(O)C3O)C(O)C2O)c1 (configuration not stated) [NAD] | 9.49 min
32 | C=C(OP(=O)(O)O)C(=O)O [PEP] | 12.9 min
33 | O=C(O)C(CO)OP(=O)(O)O (configuration not stated) [Phosphoglyceric acid A] | 12.7 min
34 | O=C(CO)COP(=O)(O)O [Triose phosphate] | 9.78 min
35 | CC(=O)NC1C(OP(=O)(O)OP(=O)(O)OCC2OC(n3ccc(=O)[nH]c3=O)C(O)C2O)OC(CO)C(O)C1O (configuration not stated) [UDP-GlcNAc] | 9.52 min
36 | CCC(=O)OC(CC(=O)[O-])C[N+](C)(C)C (configuration not stated) [carnitine-C3] | 6.42 min
37 | O=C1CC(C(=O)O)NC(=O)N1 (configuration not stated) [dihydroorotic acid] | 3.92 min
